{"source": "patent US12496357B2", "about": "“Compositions and methods for treating sickle cell disease” (Yale University, priority 2019, dated 2025)", "key": {"[1]": {"system": "SCD mutation (β-globin gene), bulk mouse bone marrow cells", "assay": "SCD gene correction by ddPCR of gDNA, bulk bone marrow cells treated ex vivo", "assay_type": "cell-based", "conditions": "for effect of added factor on gene editing frequencies by ddPCR: bulk bone marrow and HSPCs (lin−) treated with tcPNA 2 nanoparticles, particularly in HSPCs; for effect of DNA repair modulator on editing vs NP only: PLA-HPG nanoparticles encapsulating tcPNA 2 or sertcPNA 2", "experimental": "Bulk mouse bone marrow cells were treated with PLGA NPs encapsulating tcPNA 1A, 2A, 3A and correcting donor DNA molecules.\nBulk bone marrow cells were treated with PLGA NPs encapsulating modified (tc PNA 2A) and unmodified versions (tc PNA 2) of PNA sequence. 72 hours after treatment, gDNA was isolated and analyzed for editing frequencies by ddPCR.\n(§1) Bulk bone marrow cells were treated with PLGA NPs encapsulating unmodified PNA (tcPNA 2). 72 hours after treatment HSPCs, were isolated from bulk cells via negative and positive selection, and gene editing all three populations was compared.\n(§2) Bulk bone marrow and HSPCs (lin^−) were treated with tcPNA 2 nanoparticles and combinations of stem cell factor, erythropoietin, and plerixafor. 72 hours after treatment, gDNA was isolated and analyzed for editing frequencies by ddPCR.\nBulk bone marrow cells were treated with tcPNA 2 encapsulated into poly(lactic-co-glycolic acid) (PLGA), or poly(lactic acid)PLA-HPG.\nNanoparticles made from poly(lactic acid) (PLA) conjugated to hyperbranched polyglycerols (HPG), referred to as PLA-HPG, were synthesized using a double emulsion solvent evaporation protocol. Briefly, 50 mg of PLA-HPG was dissolved in 2.4 mL of ethyl acetate and 0.6 mL of DMSO. PNA and donor DNA were heated to 60° C. for 10 minutes, mixed, and immediately added dropwise to the polymer solution under vortex. This 1st emulsion (water-in-oil) was sonicated 3 times at 38% amplitude for 10 seconds using a probe sonicator. Following sonication, the primary emulsion was added dropwise to 4 mL of diH2O, forming the second emulsion (water-in-oil-in-water), which was subsequently sonicated as above. Nanoparticles were further diluted in 20 mL of diH2O. Residual organic solvent was removed using a rotovap. After solvent removal, nanoparticles were collected via centrifugation in Amicon 100K filter tubes. Following a second washing step, nanoparticles were resuspended in diH2O, frozen, and stored as 100 μl aliquots containing 2 mg of nanoparticles. Where indicated, low molecular weight PLA-HPG (P7H9-2) or high molecular weight PLA-HPG (P7H3-18) was used.\nBulk bone marrow cells were treated with PLGA or PLA-HPG nanoparticles encapsulating unmodified (tcPNA 2) and serine modified (^sertcPNA 2) along with correcting donor DNA molecules.\nExperiments were designed to test the effects of DNA repair inhibition on gene editing. Bulk bone marrow cells were treated with PLA-HPG nanoparticles encapsulating tcPNA 2 or ^sertcPNA 2, with or without the addition of small molecule modulators of DNA repair: RS-1, RI-1, RI-2, B0-2, or SCR-7."}, "[2]": {"system": "SCD mutation (β-globin gene), CD117+ HSPCs", "assay": "SCD gene correction by ddPCR of gDNA, CD117+ HSPCs", "assay_type": "cell-based, mouse", "experimental": "Bulk bone marrow cells were treated with PLGA NPs encapsulating tcPNA 1A, 2A, 3A and correcting donor DNA molecules. 72 hours after treatment, HSPCs were isolated by CD117+ selection. gDNA was harvested from these cells and assayed for gene correction via ddPCR.\nas §1"}, "[3]": {"system": "double-stranded DNA target (200 bp)", "assay": "PNA incubation with double-stranded DNA target, triplex band", "assay_type": "binding", "conditions": "unmodified tcPNA 2 vs modified tcPNA 2A; both temperature conditions", "experimental": "Modified (tcPNA 2A) and unmodified (tcPNA 2) PNAs were incubated with a double-stranded DNA target (200 bp) at indicated temperatures."}, "[4]": {"system": "SCD mutation (β-globin gene), HSPCs (lin−)", "assay": "SCD gene correction by ddPCR of gDNA, HSPCs (lin−) isolated via negative selection", "assay_type": "cell-based, mouse", "conditions": "PLGA NPs encapsulating tcPNA 2; 72 hours; comparison of three cell populations", "experimental": "as §1, §2"}, "[5]": {"system": "Berk hemizygous mice", "assay": "In vivo gene editing in Berk hemizygous mice treated with nanoparticles", "set-up": "species or system mouse", "conditions": "nanoparticles encapsulating tcPNA 2 and donor DNA, intravenous", "from_the_text": "Experiments were designed to test the ability of tcPNA 2 to drive gene editing in vivo.\nBerk hemizygous mice treated with nanoparticles encapsulating unmodified SCD-tcPNA 2: H-KKK-TTJJTJT-OOO-[…]-KKK-NH2 (SEQ ID NO:5) K indicates lysine; J, pseudoisocytosine (for C) for pH-independent triplex formation. O, 8-amino-2,6,10-trioxaoctanoic acid linkers connecting the Hoogsteen and Watson-Crick domains of the tcPNAs, serine modified bases (bold and underlined) along the Watson-Crick domain and donor DNA: […]"}, "[6]": {"system": "Primary mouse bone marrow cells", "assay": "Cytokine expression in primary mouse bone marrow cells after NP treatment", "assay_type": "cell-based", "conditions": "PLGA NPs encapsulating tcPNA 1A and correcting donor DNA; 48 hours after treatment", "experimental": "The toxicity and safety of PNA/donor DNA delivery using nanoparticles were investigated. Primary mouse bone marrow cells were treated with PLGA nanoparticles (NPs) encapsulating tcPNA 1A and correcting donor DNA. 48 hours after treatment cells were spun, media collected, and assayed for cytokine expression."}, "[7]": {"conditions": "bulk bone marrow cells, 1 uM dose"}, "[8]": {"conditions": "bulk bone marrow cells, 10 uM dose"}, "[9]": {"conditions": "PLGA NPs encapsulating tcPNA 2, 72 hours, comparison of three cell populations"}}}
{"molecule": "O=c1c2ccccc2nc(/C=C/c2cccnc2)n1Cc1ccccc1", "note": "[B0-2]", "values": [{"measurement": "gene editing frequencies", "setting": "[1]; bulk bone marrow cells, PLA-HPG nanoparticles encapsulating tcPNA 2 or sertcPNA 2, with or without modulator of DNA repair", "value": "~12", "unit": "%"}]}
{"molecule": "c1cc(CN2CCCNCCNCCCNCC2)ccc1CN1CCCNCCNCCCNCC1", "note": "[Plerixafor, plerixafor]", "values": [{"measurement": "effect of added factor on gene editing frequencies by ddPCR", "setting": "[1]; 72 hours", "value": "increased gene editing frequencies"}]}
{"molecule": "O=C1C(Cl)=C(N2CCOCC2)C(=O)N1c1ccc(Cl)c(Cl)c1", "note": "[RI-1]", "values": [{"measurement": "effect of DNA repair modulator on editing vs NP only", "setting": "[1]; [7]", "value": "higher levels of editing"}, {"measurement": "effect of DNA repair modulator on editing vs NP only", "setting": "[1]; [8]", "value": "reduced levels"}]}
{"molecule": "O=C(Nc1ccc(Br)cc1)c1ccc(Br)c(S(=O)(=O)NCc2ccccc2)c1", "note": "[RS-1]", "values": [{"measurement": "effect of DNA repair modulator on editing vs NP only", "setting": "[1]; [7]", "value": "reduced editing frequencies"}, {"measurement": "effect of DNA repair modulator on editing vs NP only", "setting": "[1]; [8]", "value": "higher levels of editing"}]}
{"molecule": "O=c1[nH]c(=S)[nH]c(N=Cc2ccccc2)c1N=Cc1ccccc1", "note": "[SCR-7]", "values": [{"measurement": "effect of DNA repair modulator on editing vs NP only", "setting": "[1]; [7]", "value": "decreased PNA-mediated gene editing"}, {"measurement": "effect of DNA repair modulator on editing vs NP only", "setting": "[1]; [8]", "value": "decreased PNA-mediated gene editing"}]}
{"molecule": "SCF: stem cell factor, C-kit ligand", "values": [{"measurement": "effect of added factor on gene editing frequencies by ddPCR", "setting": "[1]; 72 hours", "value": "increased gene editing frequencies"}]}
{"molecule": "^sertcPNA 2: tc PNA 2 sequence (SEQ ID NO:5) modified with a hydroxymethyl (serine) group at the γ position along the Watson-Crick domain (TTNNTNTTCTCCTTAAACCTGTCTT; gamma-serine (hydroxymethyl) modified PNA backbone, chemistry not fully specified)", "values": [{"measurement": "gene editing relative to unmodified tcPNA 2", "setting": "[1]; bulk bone marrow cells, PLGA or PLA-HPG nanoparticles with donor DNA, even at lower NP doses", "value": "increased gene editing appreciably"}]}
{"molecule": "lys-lys-lys-TTJJTJT-OOO-TCTCCTTAAACCTGTCTT-lys-lys-lys (SEQ ID NO:5) (TTNNTNTTCTCCTTAAACCTGTCTT; PNA, lysine ends, OOO linker, chemistry not fully specified) [tcPNA 2, tail-clamp PNA oligomer targeting the β-globin gene]", "values": [{"measurement": "gene editing by ddPCR, bulk population", "setting": "[1]; [9]", "value": "appreciable editing"}, {"measurement": "level of editing (correction of the SCD mutation) by ddPCR", "setting": "[1]; bulk bone marrow cells, PLGA NPs, unmodified tcPNA 2 vs mini-PEG modified tcPNA 2A, 72 hours", "value": "highest level of editing"}, {"measurement": "gene editing by ddPCR, CD117+ population", "setting": "[2]; [9]", "value": "appreciable editing"}, {"measurement": "invasion of duplex DNA (triplex band)", "setting": "[3]", "value": "superior invasion of duplex DNA"}, {"measurement": "gene editing by ddPCR, HSPCs isolated via negative selection", "setting": "[4]", "value": "highest levels of editing"}, {"measurement": "gene editing in vivo", "setting": "[5]", "value": "can Drive Gene Editing In Vivo"}]}
{"molecule": "tcPNA 1A: SEQ ID NO:14 tail-clamp PNA with alternating mini-PEG modified bases along the Watson-Crick domain (NNTNTTNCTTCTCCACAGGAGTCAG; alternating gamma mini-PEG modified PNA units, chemistry not fully specified)", "values": [{"measurement": "inflammatory cytokine expression", "setting": "[6]", "value": "did not produce inflammatory cytokine expression"}]}
{"molecule": "tcPNA 2A: SEQ ID NO:5 tail-clamp PNA with alternating mini-PEG modified bases along the Watson-Crick domain (TTNNTNTTCTCCTTAAACCTGTCTT; alternating gamma mini-PEG modified PNA units, chemistry not fully specified)", "values": [{"measurement": "level of gene editing as measured by ddPCR (SCD gene correction)", "setting": "[1]; bulk mouse bone marrow cells, PLGA NPs encapsulating tcPNA 1A, 2A, 3A and donor DNA, compared with each other", "value": "highest level of gene editing"}, {"measurement": "level of gene editing as measured by ddPCR (SCD gene correction)", "setting": "[2]; CD117+ HSPCs isolated 72 hours after treatment, PLGA NPs encapsulating tcPNA 1A, 2A, 3A and donor DNA, compared with each other", "value": "highest level of gene editing"}]}
